Reference: US10787432B2, “N-[(pyridyloxy)propanyl]benzamides” (Boehringer Ingelheim International GmbH, priority 2016, dated 2020)
Read-outs that look alike come from different tables or passages of the source.

Assays:
[1] = Assay C: Metabolic stability in human liver microsomes (Human MST); assay type: in vitro ADME; settings: pooled human liver microsomes, pH 7.6; human liver microsomes 1 mg/mL, compound 1 μM, 37° C., NADPH; read-out: Human MST t1/2
Description: C. Assessment of Metabolic Stability in Human Liver Microsomes (Human MST)
The metabolic stability of the compounds according to the invention may be investigated as follows:
The metabolic degradation of the test compound is assayed at 37° C. with pooled human liver microsomes. The final incubation volume of 100 μL per time point contains TRIS buffer pH 7.6 at room temperature (0.1 M), MgCl2 (5 mM), microsomal protein (1 mg/mL) and the test compound at a final concentration of 1 μM. Following a short pre-incubation period at 37° C., the reactions are initiated by addition of beta-nicotinamide adenine dinucleotide phosphate, reduced form (NADPH, 1 mM), and terminated by transferring an aliquot into solvent after different time points. After centrifugation (10000 g, 5 min), an aliquot of the supernatant is assayed by LC-MS/MS for the amount of parent compound. The half-life (t1/2) is determined by the slope of the semi-logarithmic plot of the concentration-time profile.

[2] = molecular target: T1, human orexin 2 receptor (Homo sapiens, UniProt O43614); experiment: Assay B: In vitro testing of OX2R potency: OX2R IP1 (HTRF, CHO-K1/hOX2 cells, Orexin A as agonist); assay type: cell-based; settings: Orexin A 0.5 nM
T1 construct: stably expressing the full-length human orexin 2 receptor; expressed in transfected cells; host or cells: CHO-K1 (CHO-K1/hOX2), co-expressing aequorin
T1 sequence (O43614 1-444): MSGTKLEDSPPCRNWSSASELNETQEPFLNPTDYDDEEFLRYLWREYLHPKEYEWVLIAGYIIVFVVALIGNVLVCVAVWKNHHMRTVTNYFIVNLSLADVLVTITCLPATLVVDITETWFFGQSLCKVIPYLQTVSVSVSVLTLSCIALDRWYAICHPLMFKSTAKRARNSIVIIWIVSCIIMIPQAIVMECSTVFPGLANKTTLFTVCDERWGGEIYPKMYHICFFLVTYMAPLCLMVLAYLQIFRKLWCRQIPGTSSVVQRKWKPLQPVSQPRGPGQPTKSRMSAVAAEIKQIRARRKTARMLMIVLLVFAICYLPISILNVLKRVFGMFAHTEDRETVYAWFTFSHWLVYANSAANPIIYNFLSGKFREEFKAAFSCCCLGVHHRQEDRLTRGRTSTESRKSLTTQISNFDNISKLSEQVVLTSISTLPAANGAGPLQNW
From the text: Activation of the orexin receptors expressed in cell lines results in an increase in intracellular IP3 concentration. IP1, a downstream metabolite of IP3, accumulates in cells following receptor activation and is stable in the presence of LiCl. Using Homogeneous Time-Resolved Fluorescence technology with Lumi4-Tb cryptate (commercially available from Cisbio Bioassay.) and a suitable fluorescence plate reader. […] Chem. Genomics 2009, 3, 22-32. This technique is used to characterize pharmacological modification of the orexin receptors.
B. In Vitro Testing of OX2R Potency: OX2R IP1
IP1 measurements are performed in CHO-K1 cells stably expressing the full-length human orexin 2 receptor and the aequorin photoprotein. Cells are cultivated in Ham's nutrient mixture F12 medium with 10% fetal calf serum, in a 37° C., 95% humidity and 5% CO2 incubator. The CHO-K1/hOX2 cell mass is expanded to larger cell numbers. The cells are obtained as frozen cells in cryo-vials and stored until use at −150° C. The viability of the cells after thawing is >90%. In preparation for the assay, 24 hours before the assay, the cells are thawed at 37° C. and immediately diluted with cell culture medium. After centrifugation, the cell pellet is resuspended in medium and then distributed into the assay plates with a density of 5000 cells/25 μL per well. The plates are incubated for one hour at room temperature to reduce edge effects before they are incubated for 24 hours at 37° C./5% CO2. Compounds are prepared by a 8-point serial dilution in DMSO and a final dilution step into assay buffer (HBSS with 20 mM HEPES, 0.1% BSA and 50 mM LiCl, pH 7.4) to ensure a final DMSO concentration of 1% in the assay.
On the day of the assay, cells in the plate are washed twice with 60 μL assay buffer (20 μL buffer remained in the wells after washing), followed by adding 5 μL per well of compounds diluted in assay buffer. After 15 minutes of incubation at room temperature 5 μL per well of Orexin A peptide (final concentration: 0.5 nM) dissolved in assay buffer is added to the assay plate. The assay plate is incubated for 60 minutes at 37° C. Then 5 μL per well of Anti-IP1-Cryptate Tb solution and 5 μL per well of IP1-d2 dilution are added to all well of the plate and the plate is incubated for a further 60 minutes light protected at room temperature. The emission at 615 nm and 665 nm (Excitation wavelength: 320 nm) are measured using an EnVision reader (PerkinElmer). The ratio between the emission at 665 nm and 615 is calculated by the reader.
8-point four parametric non-linear curve fitting and determination of IC50 values and Hill slopes is performed using a regular analysis software e.g. AssayExplorer (Accelrys). In order to establish an agonist concentration independent parameter, Kb values are calculated using the following equation: IC50/((2+(A/EC50)n)^1/n−1) (with A=concentration agonist, EC50=EC50 agonist, n=Hill slope agonist) (see P. Leff, I. G. Dougall, Trends Pharmacol. Sci. 1993, 14(4), 110-112).
Kb values from Assay A (OX1R) and Assay B (OX2R) can then provide a selectivity ratio which is independent of the agonist (Orexin A) concentration.

[3] = molecular target: T2, human Orexin 1 receptor (Homo sapiens, UniProt O43613); experiment: Assay A: In vitro testing of OX1R potency: OX1R IP1 (HTRF, CHO-K1/hOX1 cells, Orexin A as agonist); assay type: cell-based; settings: for Kb: read-out: OX1R Kb (Orexin A concentration used)
T2 construct: stably expressing the full-length human Orexin 1 receptor; expressed in transfected cells; host or cells: CHO-K1 (CHO-K1/hOX1), co-expressing aequorin
T2 sequence (O43613 1-425): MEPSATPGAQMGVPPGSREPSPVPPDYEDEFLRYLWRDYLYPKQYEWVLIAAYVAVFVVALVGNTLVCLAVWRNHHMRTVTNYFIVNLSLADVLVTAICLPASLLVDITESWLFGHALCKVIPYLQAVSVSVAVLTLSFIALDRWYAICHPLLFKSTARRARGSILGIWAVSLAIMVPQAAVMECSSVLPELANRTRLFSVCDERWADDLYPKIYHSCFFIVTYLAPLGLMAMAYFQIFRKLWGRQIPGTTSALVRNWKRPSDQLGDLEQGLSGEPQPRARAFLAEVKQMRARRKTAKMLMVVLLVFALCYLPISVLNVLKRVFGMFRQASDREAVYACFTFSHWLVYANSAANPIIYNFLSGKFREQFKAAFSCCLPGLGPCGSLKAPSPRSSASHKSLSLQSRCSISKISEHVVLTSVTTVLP

For `CCN(C(=O)c1ccc(C)cc1-c1nnc(C)o1)[C@@H](C)COc1ccc(Cl)cn1` [Example 38], the half-life at 1 μM [1] was 11 min, the Kb [2] was 877 nM and the “OX2R Kb/OX1R Kb” value ([3]; OX1R Kb at 0.5 nM Orexin A) was 313. The Kb ([3]; Orexin A 0.5 nM) was 2.8 nM.
In the case of `CCN(C(=O)c1c(-n2nccn2)ccc(C)c1F)[C@@H](C)COc1ncc(C(F)(F)F)cc1F` [Example 127], the half-life at 1 μM [1] is reported as 15 min, the Kb [2] is reported as 49 nM and the “OX2R Kb/OX1R Kb” value ([3]; OX1R Kb at 50 nM Orexin A) is reported as 377. It also gave a Kb ([3]; Orexin A 50 nM) of 0.13 nM.
With `CCN(C(=O)c1ccc(C)cc1-c1ncccn1)[C@@H](C)COc1ccc(C(F)(F)F)cn1` [Example 101] the half-life at 1 μM [1] was 13 min, the Kb [2] was 30 nM and the “OX2R Kb/OX1R Kb” value ([3]; OX1R Kb at 0.5 nM Orexin A) was 79. For the same compound, the Kb ([3]; Orexin A 0.5 nM) was 0.38 nM.
With `CCN(C(=O)c1cccc(F)c1-n1nccn1)[C@@H](C)COc1ccc(C(F)(F)F)cn1` [Example 109] the half-life at 1 μM [1] was 75 min, the Kb [2] was 36 nM and the “OX2R Kb/OX1R Kb” value ([3]; OX1R Kb at 50 nM Orexin A) was 327. The Kb ([3]; Orexin A 50 nM) was 0.11 nM.
In the case of `CCN(C(=O)c1cccc(F)c1-n1nccn1)[C@@H](C)COc1ncc(C(F)(F)F)cc1Cl` [Example 110], the half-life at 1 μM [1] is reported as 100 min, the Kb [2] is reported as 53 nM and the “OX2R Kb/OX1R Kb” value ([3]; OX1R Kb at 50 nM Orexin A) is reported as 312. It also gave a Kb ([3]; Orexin A 50 nM) of 0.17 nM.
With `CCN(C(=O)c1cc(F)cc(F)c1-n1nccn1)[C@@H](C)COc1ccc(Cl)cn1` [Example 32] the half-life at 1 μM [1] was 46 min, the Kb [2] was 117 nM and the “OX2R Kb/OX1R Kb” value ([3]; OX1R Kb at 0.5 nM Orexin A) was 106. For the same compound, the “OX2R Kb/OX1R Kb” value ([3]; OX1R Kb at 50 nM Orexin A) was 143, the Kb ([3]; Orexin A 0.5 nM) was 1.1 nM and the Kb ([3]; Orexin A 50 nM) was 0.82 nM.
For `CCN(C(=O)c1cc(F)ccc1-c1ncccn1)[C@@H](C)COc1ccc(Br)cn1` [Example 120], the half-life at 1 μM [1] was 76 min, the Kb [2] was 43 nM and the “OX2R Kb/OX1R Kb” value ([3]; OX1R Kb at 0.5 nM Orexin A) was 165. The “OX2R Kb/OX1R Kb” value ([3]; OX1R Kb at 50 nM Orexin A) was 358, the Kb ([3]; Orexin A 0.5 nM) was 0.26 nM and the Kb ([3]; Orexin A 50 nM) was 0.12 nM.
With `CCN(C(=O)c1cccc(F)c1-c1nnc(C)o1)[C@@H](C)COc1ccc(C(F)(F)F)cn1` [Example 18] the half-life at 1 μM [1] was 74 min, the Kb [2] was 218 nM and the “OX2R Kb/OX1R Kb” value ([3]; OX1R Kb at 0.5 nM Orexin A) was 273. For the same compound, the Kb ([3]; Orexin A 0.5 nM) was 0.8 nM.
With `CCN(C(=O)c1ccccc1-c1cnc(C)nc1)[C@@H](C)COc1ccc(C(F)(F)F)cn1` [Example 85] the half-life at 1 μM [1] was 17 min, the Kb [2] was 583 nM and the “OX2R Kb/OX1R Kb” value ([3]; OX1R Kb at 0.5 nM Orexin A) was 68. It also gave a Kb ([3]; Orexin A 0.5 nM) of 8.6 nM.
In the case of `CCN(C(=O)c1ccccc1-c1ccn(C)n1)[C@@H](C)COc1ccc(C(F)(F)F)cn1` [Example 74], the half-life at 1 μM [1] is reported as 14 min, the Kb [2] is reported as 48 nM and the “OX2R Kb/OX1R Kb” value ([3]; OX1R Kb at 0.5 nM Orexin A) is reported as 123. The “OX2R Kb/OX1R Kb” value ([3]; OX1R Kb at 50 nM Orexin A) was 229, the Kb ([3]; Orexin A 0.5 nM) was 0.39 nM and the Kb ([3]; Orexin A 50 nM) was 0.21 nM.
With `CCN(C(=O)c1c(F)cccc1-c1ncccn1)[C@@H](C)COc1ccc(C(F)(F)F)cn1` [Example 116] the half-life at 1 μM [1] was 33 min, the Kb [2] was 45 nM and the “OX2R Kb/OX1R Kb” value ([3]; OX1R Kb at 0.5 nM Orexin A) was 132. For the same compound, the “OX2R Kb/OX1R Kb” value ([3]; OX1R Kb at 50 nM Orexin A) was 205, the Kb ([3]; Orexin A 0.5 nM) was 0.34 nM and the Kb ([3]; Orexin A 50 nM) was 0.22 nM.
With `CCN(C(=O)c1ccccc1-c1ccc(=O)n(C)c1)[C@@H](C)COc1ccc(C(F)(F)F)cn1` [Example 96] the half-life at 1 μM [1] was 34 min, the Kb [2] was 1610 nM and the “OX2R Kb/OX1R Kb” value ([3]; OX1R Kb at 0.5 nM Orexin A) was 217. For the same compound, the Kb ([3]; Orexin A 0.5 nM) was 7.4 nM.
